From PubChem BioAssay (NCI)
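These data come from cells grown in 96-well plates and exposed to compound for 48 hours at five concentrations. The concentration for full growth arrest is given as TGI.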

Assays:
Assay in all cases: inhibition of tumour cell growth, NCI panel, 48 h
[1] = system: 786-0 renal
[2] = system: A498 renal
[3] = system: A549 NSCLC
[4] = system: ACHN renal
[5] = system: BT-549 breast
[6] = system: CAKI-1 renal
[7] = system: CCRF-CEM leukemia
[8] = system: COLO 205 colon
[9] = system: DU-145 prostate
[10] = system: EKVX NSCLC
[11] = system: HCC-2998 colon
[12] = system: HCT-116 colon
[13] = system: HCT-15 colon
[14] = system: HL-60(TB) leukemia
[15] = system: HOP-62 NSCLC
[16] = system: HS 578T breast
[17] = system: HT29 colon
[18] = system: IGROV1 ovarian
[19] = system: K-562 leukemia
[20] = system: KM12 colon
[21] = system: LOX IMVI melanoma
[22] = system: M14 melanoma
[23] = system: MALME-3M melanoma
[24] = system: MCF7 breast
[25] = system: MDA-MB-231 breast
[26] = system: MDA-MB-435
[27] = system: MDA-N
[28] = system: MOLT-4 leukemia
[29] = system: NCI-H226 lung
[30] = system: NCI-H23 lung
[31] = system: NCI-H460 lung
[32] = system: NCI-H522 lung
[33] = system: NCI/ADR-RES ovarian
[34] = system: OVCAR-3 ovarian
[35] = system: OVCAR-4 ovarian
[36] = system: OVCAR-5 ovarian
[37] = system: OVCAR-8 ovarian
[38] = system: PC-3 prostate
[39] = system: RPMI-8226 leukemia
[40] = system: RXF 393 renal
[41] = system: SF-268 CNS
[42] = system: SF-295 CNS
[43] = system: SF-539 CNS
[44] = system: SK-MEL-28 melanoma
[45] = system: SK-MEL-5 melanoma
[46] = system: SK-OV-3 ovarian
[47] = system: SN12C renal
[48] = system: SNB-19 CNS
[49] = system: SW-620 colon
[50] = system: T-47D breast
[51] = system: TK-10 renal
[52] = system: U251 CNS
[53] = system: UACC-257 melanoma
[54] = system: UACC-62 melanoma
[55] = system: UO-31 renal
[56] = system: HOP-92 NSCLC
[57] = system: SK-MEL-2 melanoma
[58] = system: SNB-75 CNS
[59] = system: SR leukemia

SMILES: CCCc1cc(COC)c(C#N)c(=O)[nH]1
- TGI [1]: > 100 µM
- TGI [2]: > 100 µM
- TGI [3]: > 100 µM
- TGI [4]: > 100 µM
- TGI [5]: > 100 µM
- TGI [6]: > 100 µM
- TGI [7]: > 100 µM
- TGI [8]: > 100 µM
- TGI [9]: > 100 µM
- TGI [10]: > 100 µM
- TGI [11]: > 100 µM
- TGI [12]: > 100 µM
- TGI [13]: > 100 µM
- TGI [14]: > 100 µM
- TGI [15]: > 100 µM
- TGI [16]: > 100 µM
- TGI [17]: > 100 µM
- TGI [18]: > 100 µM
- TGI [19]: > 100 µM
- TGI [20]: > 100 µM
- TGI [21]: > 100 µM
- TGI [22]: > 100 µM
- TGI [23]: > 100 µM
- TGI [24]: > 100 µM
- TGI [25]: > 100 µM
- TGI [26]: > 100 µM
- TGI [27]: > 100 µM
- TGI [28]: > 100 µM
- TGI [29]: > 100 µM
- TGI [30]: > 100 µM
- TGI [31]: > 100 µM
- TGI [32]: > 100 µM
- TGI [33]: > 100 µM
- TGI [34]: > 100 µM
- TGI [35]: > 100 µM
- TGI [36]: > 100 µM
- TGI [37]: > 100 µM
- TGI [38]: > 100 µM
- TGI [39]: > 100 µM
- TGI [40]: > 100 µM
- TGI [41]: > 100 µM
- TGI [42]: > 100 µM
- TGI [43]: > 100 µM
- TGI [44]: > 100 µM
- TGI [45]: > 100 µM
- TGI [46]: > 100 µM
- TGI [47]: > 100 µM
- TGI [48]: > 100 µM
- TGI [49]: > 100 µM
- TGI [50]: > 100 µM
- TGI [51]: > 100 µM
- TGI [52]: > 100 µM
- TGI [53]: > 100 µM
- TGI [54]: > 100 µM
- TGI [55]: > 100 µM

SMILES: CC(=O)NCC1OC2COC(c3ccccc3)OC2C(NC(=O)c2ccccc2)C1OC(=O)c1ccccc1 (configuration not stated)
- TGI [1]: > 100 µM
- TGI [2]: > 100 µM
- TGI [3]: > 100 µM
- TGI [4]: > 100 µM
- TGI [5]: > 100 µM
- TGI [6]: > 100 µM
- TGI [7]: > 100 µM
- TGI [8]: > 100 µM
- TGI [9]: > 100 µM
- TGI [10]: > 100 µM
- TGI [11]: > 100 µM
- TGI [12]: > 100 µM
- TGI [13]: > 100 µM
- TGI [14]: > 100 µM
- TGI [15]: > 100 µM
- TGI [56]: > 100 µM
- TGI [16]: > 100 µM
- TGI [17]: > 100 µM
- TGI [19]: > 100 µM
- TGI [20]: > 100 µM
- TGI [21]: > 100 µM
- TGI [22]: > 100 µM
- TGI [23]: > 100 µM
- TGI [24]: > 100 µM
- TGI [25]: > 100 µM
- TGI [26]: > 100 µM
- TGI [27]: > 100 µM
- TGI [28]: > 100 µM
- TGI [29]: > 100 µM
- TGI [30]: > 100 µM
- TGI [31]: > 100 µM
- TGI [33]: > 100 µM
- TGI [34]: > 100 µM
- TGI [35]: > 100 µM
- TGI [36]: > 100 µM
- TGI [37]: > 100 µM
- TGI [38]: > 100 µM
- TGI [40]: > 100 µM
- TGI [41]: > 100 µM
- TGI [42]: > 100 µM
- TGI [43]: > 100 µM
- TGI [57]: > 100 µM
- TGI [44]: > 100 µM
- TGI [45]: > 100 µM
- TGI [46]: > 100 µM
- TGI [47]: > 100 µM
- TGI [48]: > 100 µM
- TGI [58]: > 100 µM
- TGI [49]: > 100 µM
- TGI [50]: > 100 µM
- TGI [51]: > 100 µM
- TGI [52]: > 100 µM
- TGI [53]: > 100 µM
- TGI [54]: > 100 µM
- TGI [55]: > 100 µM

SMILES: CCOC(=O)c1nc2ccc(C(F)(F)F)cc2nc1NCc1ccc(OC)c(OC)c1
- TGI [1]: > 100 µM
- TGI [2]: > 100 µM
- TGI [3]: > 100 µM
- TGI [4]: > 100 µM
- TGI [5]: > 100 µM
- TGI [6]: > 100 µM
- TGI [7]: > 100 µM
- TGI [8]: > 100 µM
- TGI [10]: > 100 µM
- TGI [12]: > 100 µM
- TGI [13]: > 100 µM
- TGI [14]: > 100 µM
- TGI [15]: > 100 µM
- TGI [56]: > 100 µM
- TGI [16]: > 100 µM
- TGI [17]: > 100 µM
- TGI [18]: > 100 µM
- TGI [19]: > 100 µM
- TGI [20]: > 100 µM
- TGI [21]: > 100 µM
- TGI [22]: > 100 µM
- TGI [23]: > 100 µM
- TGI [24]: > 100 µM
- TGI [25]: > 100 µM
- TGI [26]: > 100 µM
- TGI [27]: > 100 µM
- TGI [28]: > 100 µM
- TGI [29]: > 100 µM
- TGI [30]: > 100 µM
- TGI [31]: > 100 µM
- TGI [32]: > 100 µM
- TGI [33]: > 100 µM
- TGI [34]: > 100 µM
- TGI [35]: > 100 µM
- TGI [36]: > 100 µM
- TGI [37]: > 100 µM
- TGI [38]: > 100 µM
- TGI [39]: > 100 µM
- TGI [40]: > 100 µM
- TGI [41]: > 100 µM
- TGI [42]: > 100 µM
- TGI [43]: > 100 µM
- TGI [57]: 86.1 µM
- TGI [45]: > 100 µM
- TGI [46]: > 100 µM
- TGI [48]: > 100 µM
- TGI [58]: > 100 µM
- TGI [59]: > 100 µM
- TGI [49]: > 100 µM
- TGI [50]: > 100 µM
- TGI [51]: > 100 µM
- TGI [52]: > 100 µM
- TGI [53]: > 100 µM
- TGI [54]: > 100 µM
- TGI [55]: > 100 µM

SMILES: Cc1ccc(C)n2c1nc1ccccc12
- TGI [1]: > 100 µM
- TGI [2]: 33.7 µM
- TGI [3]: > 100 µM
- TGI [4]: > 100 µM
- TGI [5]: > 100 µM
- TGI [7]: > 100 µM
- TGI [8]: > 100 µM
- TGI [9]: > 100 µM
- TGI [10]: > 100 µM
- TGI [11]: > 100 µM
- TGI [13]: > 100 µM
- TGI [14]: > 100 µM
- TGI [15]: > 100 µM
- TGI [56]: > 100 µM
- TGI [16]: > 100 µM
- TGI [17]: > 100 µM
- TGI [18]: > 100 µM
- TGI [19]: > 100 µM
- TGI [20]: > 100 µM
- TGI [22]: > 100 µM
- TGI [23]: > 100 µM
- TGI [24]: > 100 µM
- TGI [26]: > 100 µM
- TGI [27]: > 100 µM
- TGI [28]: > 100 µM
- TGI [29]: > 100 µM
- TGI [30]: > 100 µM
- TGI [31]: > 100 µM
- TGI [33]: > 100 µM
- TGI [34]: > 100 µM
- TGI [36]: > 100 µM
- TGI [37]: > 100 µM
- TGI [38]: > 100 µM
- TGI [39]: > 100 µM
- TGI [40]: > 100 µM
- TGI [41]: > 100 µM
- TGI [42]: > 100 µM
- TGI [43]: > 100 µM
- TGI [44]: > 100 µM
- TGI [45]: > 100 µM
- TGI [46]: > 100 µM
- TGI [47]: > 100 µM
- TGI [48]: > 100 µM
- TGI [58]: > 100 µM
- TGI [59]: > 100 µM
- TGI [49]: > 100 µM
- TGI [50]: > 100 µM
- TGI [51]: > 100 µM
- TGI [52]: > 100 µM
- TGI [53]: > 100 µM
- TGI [54]: > 100 µM
- TGI [55]: > 100 µM
